Laboratory results from patent US6376670B1, “Quinoline-indole antimicrobial agents, uses and compositions related thereto” (Sepracor Inc., priority 1997, dated 2002).
Like-named read-outs stand apart in the source and are kept apart here.

Legend:
Experiment in all cases: Determination of MIC values (BHI broth, 96 well microtiter plate)
Type in all cases: cell-based
[1] = test system: methicillin-resistant Staphylococcus aureus (MRSA); details: Staphylococcus aureus, MRSA, read-out: MIC MRSA
Summary of the method: (§1)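 Here, each test series spans final concentrations of 25 to 0.39 µg/mL in BHI broth, with DMSO as diluent. Plates seeded at 10^5–10^6 cells/mL are kept at 37° C and approx. 7-10% CO2 for about 16 hours before growth is scored.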

[2] = test system: vancomycin-resistant Enterococcus spp. (VRE); details: Enterococcus, VRE, read-out: MIC VREF
Summary of the method: as §1

Streptococcus pneumoniae = details: Streptococcus pneumoniae, read-out: MIC S. pneu
Summary of the method: as §1

[3] = VREF, BHI broth, overnight 37° C.
[4] = S. pneu, BHI broth, overnight 37° C.

Row | SMILES | MIC ([1]; BHI broth, overnight 37° C.) | MIC [2, 3] | MIC (Streptococcus pneumoniae; [4]) | MIC [1] | MIC [2] | MIC (Streptococcus pneumoniae)
1 | Clc1cc(-c2c[nH]c3c(Cl)cccc23)nc2ccccc12 [Example 344] | < 7 µg/mL | > 25 µg/mL | < 7 µg/mL |  |  | 
2 | Clc1cc(-c2c[nH]c3ccc(Br)cc23)nc2ccccc12 [Example 345] | < 7 µg/mL | > 25 µg/mL | < 7 µg/mL |  |  | 
3 | Clc1cc(-c2c[nH]c3c(Br)cccc23)nc2ccccc12 [Example 346] | < 25 µg/mL | > 25 µg/mL | < 25 µg/mL |  |  | 
4 | Oc1ccc2[nH]cc(-c3cc(Cl)c4ccccc4n3)c2c1 [Example 347] | < 25 µg/mL | > 25 µg/mL | < 25 µg/mL |  |  | 
5 | COc1ccc2[nH]cc(-c3cc(Cl)c4ccccc4n3)c2c1 [Example 348] | < 7 µg/mL | > 25 µg/mL | < 7 µg/mL |  |  | 
6 | O=[N+]([O-])c1ccc2[nH]cc(-c3cc(Cl)c4ccccc4n3)c2c1 [Example 349] | > 25 µg/mL | > 25 µg/mL | > 25 µg/mL |  |  | 
7 | N#Cc1ccc2[nH]cc(-c3cc(Cl)c4ccccc4n3)c2c1 [Example 350] | > 25 µg/mL | > 25 µg/mL | > 25 µg/mL |  |  | 
8 | CC(=O)Oc1cccc2[nH]cc(-c3cc(Cl)c4ccccc4n3)c12 [Example 351] | < 7 µg/mL | > 25 µg/mL | < 7 µg/mL |  |  | 
9 | Cc1[nH]c2ccccc2c1-c1cc(Cl)c2ccccc2n1 [Example 352] | < 7 µg/mL | > 25 µg/mL | < 7 µg/mL |  |  | 
10 | Clc1cc(-c2c(-c3ccccc3)[nH]c3ccccc23)nc2ccccc12 [Example 353] | > 25 µg/mL | > 25 µg/mL | > 25 µg/mL |  |  | 
11 | Clc1ccc2nc(-c3c[nH]c4c(Cl)cccc34)ccc2c1 [Example 354] | > 25 µg/mL | > 25 µg/mL | > 25 µg/mL |  |  | 
12 | Clc1ccc2nc(-c3c[nH]c4c(Br)cccc34)ccc2c1 [Example 355] | > 25 µg/mL | > 25 µg/mL | > 25 µg/mL |  |  | 
13 | Cn1cc(-c2cc(C(=O)NCc3cccc(CN)c3)c3cc(I)ccc3n2)c2cc(Br)ccc21 [Example 356] | < 7 µg/mL | < 7 µg/mL | < 7 µg/mL |  |  | 
14 | Cn1cc(-c2cc(C(=O)NCC3CCC(CN)CC3)c3cc(I)ccc3n2)c2cc(Br)ccc21 (stereo not drawn) [Example 357] | < 7 µg/mL | < 7 µg/mL | < 7 µg/mL |  |  | 
15 | Cn1cc(-c2cc(C(=O)NCC3CCCC(CN)C3)c3cc(I)ccc3n2)c2cc(Br)ccc21 (stereo not drawn) [Example 358] | < 7 µg/mL | < 7 µg/mL | < 7 µg/mL |  |  | 
16 | Cn1cc(-c2cc(C(=O)NC3CCC(N)CC3)c3cc(I)ccc3n2)c2cc(Br)ccc21 (stereo not drawn) [Example 360] | < 7 µg/mL | < 7 µg/mL | < 7 µg/mL |  |  | 
17 | CCOc1cc(-c2cn(C(=O)OC(C)(C)C)c3ccc(Br)cc23)nc2ccc(I)cc12 [Example 361] | > 25 µg/mL | > 25 µg/mL | > 25 µg/mL |  |  | 
18 | CC(C)(C)OC(=O)n1cc(-c2ccc3cc(I)ccc3n2)c2cc(Br)ccc21 [Example 362] | > 25 µg/mL | > 25 µg/mL | > 25 µg/mL |  |  | 
19 | Brc1ccc2[nH]cc(-c3ccc4cc(I)ccc4n3)c2c1 [Example 363] | < 7 µg/mL | < 7 µg/mL | < 7 µg/mL |  |  | 
20 | CCOc1cc(-c2c[nH]c3ccc(Br)cc23)nc2ccc(I)cc12 [Example 364] | < 7 µg/mL | < 25 µg/mL | < 7 µg/mL |  |  | 
21 | Cn1cc(-c2cc(C(=O)NCc3ccc(CN)cc3)c3cc(Cl)ccc3n2)c2cc(Br)ccc21 [Example 365] | < 7 µg/mL | < 7 µg/mL | < 7 µg/mL |  |  | 
22 | Cn1cc(-c2cc(C(=O)NCc3cccc(CN)c3)c3cc(Cl)ccc3n2)c2cc(Br)ccc21 [Example 366] | > 25 µg/mL | > 25 µg/mL | > 25 µg/mL |  |  | 
23 | Cn1cc(-c2cc(C(=O)NCC3CCC(CN)CC3)c3cc(Cl)ccc3n2)c2cc(Br)ccc21 (stereo not drawn) [Example 368] | < 7 µg/mL | < 7 µg/mL | < 7 µg/mL |  |  | 

Row | SMILES | MIC ([1]; BHI broth, overnight 37° C.) | MIC [2, 3] | MIC (Streptococcus pneumoniae; [4]) | MIC [1] | MIC [2] | MIC (Streptococcus pneumoniae)
24 | Cn1cc(-c2cc(C(=O)NCC3CCCC(CN)C3)c3cc(Cl)ccc3n2)c2cc(Br)ccc21 (stereo not drawn) [Example 369] | < 7 µg/mL | < 7 µg/mL | < 7 µg/mL |  |  | 
25 | Cn1cc(-c2cc(C(=O)NCCN)c3cc(Cl)ccc3n2)c2cc(Br)ccc21 [Example 370] | < 7 µg/mL | < 7 µg/mL | < 7 µg/mL |  |  | 
26 | Cn1cc(-c2cc(C(=O)NC3CCC(N)CC3)c3cc(Cl)ccc3n2)c2cc(Br)ccc21 (stereo not drawn) [Example 371] | < 7 µg/mL | < 7 µg/mL | < 7 µg/mL |  |  | 
27 | NCc1cc(-c2c[nH]c3ccc(Cl)cc23)nc2ccccc12 [Example 372] | < 7 µg/mL | < 25 µg/mL | < 7 µg/mL |  |  | 
28 | Brc1ccc2c(CNCc3ccccc3)cc(-c3c[nH]c4ccc(Br)cc34)nc2c1 [Example 373] | < 7 µg/mL | < 7 µg/mL | < 7 µg/mL |  |  | 
29 | NCc1ccc(/C=C/c2cc(-c3c[nH]c4ccc(Br)cc34)nc3cc(Br)ccc23)cc1 [Example 374] | < 7 µg/mL | < 7 µg/mL | < 7 µg/mL |  |  | 
30 | CCB(OC)C(=O)c1cc(-c2c[nH]c3ccc(Br)cc23)nc2cc(Br)ccc12 [Example 375] | > 25 µg/mL | > 25 µg/mL | > 25 µg/mL |  |  | 
31 | Cn1cc(-c2cc(C(=O)NCc3ccc(CN)cc3)c3cc(C#CCN4CCCCC4)ccc3n2)c2cc(Br)ccc21 [Example 376] | < 25 µg/mL | < 25 µg/mL | < 7 µg/mL |  |  | 
32 | Cn1cc(-c2cc(C(=O)NCCN)c3cc(C#CCN4CCCCC4)ccc3n2)c2cc(Br)ccc21 [Example 377] | < 7 µg/mL | < 7 µg/mL | < 7 µg/mL |  |  | 
33 | CC(C)(C)OC(=O)n1cc(/C=N/c2cccc(Cl)c2)c2cc(Br)ccc21 [Example 381] | > 25 µg/mL | > 25 µg/mL | > 25 µg/mL |  |  | 
34 | C[Si](C)(C)CCOC(=O)n1cc(C=O)c2cc(Br)ccc21 [Example 382] |  |  |  | > 25 µg/mL | > 25 µg/mL | > 25 µg/mL
35 | C[Si](C)(C)CCOC(=O)n1cc(/C=N/c2ccc(I)cc2)c2cc(Br)ccc21 [Example 383] |  |  |  | > 25 µg/mL | > 25 µg/mL | > 25 µg/mL
36 | Cc1[nH]c2ccc(Cl)cc2c1-c1ccc2cc(Cl)ccc2n1 [Example 384] | < 7 µg/mL | > 25 µg/mL | < 7 µg/mL |  |  | 
37 | O=[N+]([O-])c1cccc2nc(-c3c[nH]c4ccc(Cl)cc34)ccc12 [Example 385] | > 25 µg/mL | > 25 µg/mL | > 25 µg/mL |  |  | 
38 | COc1ccc2[nH]c(C)c(-c3ccc4c([N+](=O)[O-])cccc4n3)c2c1 [Example 386] | > 25 µg/mL | > 25 µg/mL | > 25 µg/mL |  |  | 
39 | O=[N+]([O-])c1cccc2nc(-c3c[nH]c4ccc(Br)cc34)ccc12 [Example 387] | > 25 µg/mL | > 25 µg/mL | > 25 µg/mL |  |  | 
40 | O=[N+]([O-])c1cccc2nc(-c3c[nH]c4cc(F)ccc34)ccc12 [Example 388] | > 25 µg/mL | > 25 µg/mL | > 25 µg/mL |  |  | 
41 | Cn1cc(-c2cc(C(=O)NCc3ccc(CN)cc3)c3cc(C#CCNCCc4ccccc4)ccc3n2)c2cc(Br)ccc21 [Example 389] | < 7 µg/mL | < 7 µg/mL | < 25 µg/mL |  |  | 
42 | Cn1cc(-c2cc(C(=O)NCc3ccc(CN)cc3)c3cc(C#CCNCCc4ccc(Cl)cc4)ccc3n2)c2cc(Br)ccc21 [Example 390] | < 25 µg/mL | < 7 µg/mL | < 7 µg/mL |  |  | 
43 | Cn1cc(-c2cc(C(=O)NCc3ccc(CN)cc3)c3cc(C#CCNCC4CCCCC4)ccc3n2)c2cc(Br)ccc21 [Example 391] | < 7 µg/mL | < 7 µg/mL | < 7 µg/mL |  |  | 
44 | CN(C)CCNCC#Cc1ccc2nc(-c3cn(C)c4ccc(Br)cc34)cc(C(=O)NCc3ccc(CN)cc3)c2c1 [Example 392] | < 7 µg/mL | < 7 µg/mL | < 7 µg/mL |  |  | 
45 | Cn1cc(-c2cc(C(=O)NCc3ccc(CN)cc3)c3cc(C#CCN4CCCC4)ccc3n2)c2cc(Br)ccc21 [Example 393] | < 7 µg/mL | < 25 µg/mL | < 25 µg/mL |  |  | 
